Literature values in PubChem BioAssay AID1259409 (Chemical Carcinogenesis Research Information System (CCRIS), 2018).

System: rodent chemically induced tumor inhibition, incidence and multiplicity
Test: CCRIS tumor inhibitor studies

CCCCCCCc1c(O)cc(CC=C(C)C)c(O)c1C=O
tumour outcome (control, treated, inhibition, significance) (Carcinogen: AZOXYMETHANE, 25843-45-2, Dose [Inhibitor]: 0, 0.02% IN DIET IN WK 1-3 OF STUDY FOLLOWED BY BASAL DIET FOR DURATION OF STUDY (STUDY DURATION: 1 YR), Route [Inhibitor]: ORAL, Species: RAT, Strain/Sex: F344/MALE, Target Tissue: Type of Lesion: LARGE INTESTINE: ADENOCARCINOMA, Dose [Carcinogen]: 15 MG/KG BW 1/WK IN WK 1 AND 2 OF STUDY, Promoter: NONE USED): 13/27 (48%), 6/30 (20%), 58%, not significant | tumour outcome (control, treated, inhibition, significance) (Carcinogen: AZOXYMETHANE, 25843-45-2, Dose [Inhibitor]: 0, 0.02% IN DIET IN WK 1-3 OF STUDY FOLLOWED BY BASAL DIET FOR DURATION OF STUDY (STUDY DURATION: 1 YR), Route [Inhibitor]: ORAL, Species: RAT, Strain/Sex: F344/MALE, Target Tissue: Type of Lesion: LARGE INTESTINE: ADENOMA, Dose [Carcinogen]: 15 MG/KG BW 1/WK IN WK 1 AND 2 OF STUDY, Promoter: NONE USED): 6/27 (22%), 4/30 (13%), 41%, not significant | tumour outcome (control, treated, inhibition, significance) (Carcinogen: AZOXYMETHANE, 25843-45-2, Dose [Inhibitor]: 0, 0.02% IN DIET IN WK 1-3 OF STUDY FOLLOWED BY BASAL DIET FOR DURATION OF STUDY (STUDY DURATION: 1 YR), Route [Inhibitor]: ORAL, Species: RAT, Strain/Sex: F344/MALE, Target Tissue: Type of Lesion: SMALL INTESTINE: ADENOCARCINOMA, Dose [Carcinogen]: 15 MG/KG BW 1/WK IN WK 1 AND 2 OF STUDY, Promoter: NONE USED): 6/27 (22%), 5/30 (17%), 23%, not significant

Brc1cc2c(cc1Br)Oc1cc(Br)c(Br)cc1O2
tumour outcome (control, treated, inhibition, significance) (Carcinogen: 7,12-DIMETHYLBENZ[A]ANTHRACENE, 57-97-6, Dose [Inhibitor]: 0, 17 NMOL 2/WK APPLIED 1 HR PRIOR TO EACH PROMOTER DOSE FOR 10 WK (STUDY DURATION: 11 WK), Route [Inhibitor]: DERMAL, Species: MOUSE, Target Tissue: Type of Lesion: SKIN: TUMOR, Dose [Carcinogen]: 390 NMOL ONCE, Promoter: 12-O-TETRADECANOYLPHORBOL-13-ACETATE, 16561-29-8): 100%, 0%, 100%, not calculated

CCCCC(C)N=C=S (centres undefined)
tumour outcome (control, treated, inhibition, significance) (Carcinogen: 4-(METHYLNITROSAMINO)-1-(3-PYRIDYL)-1-BUTANONE, 64091-91-4, Dose [Inhibitor]: 0, 1 UMOL ONCE 2 HR PRIOR TO CARCINOGEN DOSE (STUDY DURATION: 16 WK), Route [Inhibitor]: GAVAGE, Species: MOUSE, Strain/Sex: STRAIN-A/FEMALE, Target Tissue: Type of Lesion: LUNG: ADENOMA, Dose [Carcinogen]: 10 UMOL IN 0.1 ML SALINE ONCE, Promoter: NONE USED): 100%, 70%, 30%, p<0.05 | tumour outcome (control, treated, inhibition, significance) (Carcinogen: 4-(METHYLNITROSAMINO)-1-(3-PYRIDYL)-1-BUTANONE, 64091-91-4, Dose [Inhibitor]: 0, 5 UMOL ONCE 2 HR PRIOR TO CARCINOGEN DOSE (STUDY DURATION: 16 WK), Route [Inhibitor]: GAVAGE, Species: MOUSE, Strain/Sex: STRAIN-A/FEMALE, Target Tissue: Type of Lesion: LUNG: ADENOMA, Dose [Carcinogen]: 10 UMOL IN 0.1 ML SALINE ONCE, Promoter: NONE USED): 100%, 30%, 70%, p<0.05

COCC(=O)[C@@]1(OC(C)=O)CC[C@H]2[C@@H]3CCC4=CC(=O)CCC4=C3[C@@H](c3ccc(N(C)C)cc3)C[C@@]21C
tumour outcome (control, treated, inhibition, significance) (Carcinogen: 7,12-Dimethylbenz(a)anthracene (57-97-6), Dose [Inhibitor]: 1 mg administered daily for 28 days, Route [Inhibitor]: Subcutaneous, Species: Rat, Strain/Sex: Sprague-Dawley/Female, Target Tissue: Type of Lesion: Mammary gland: Adenocarcinoma and papilliary carcinoma, Dose [Carcinogen]: 10 mg/kg once at 50 days of age, Promoter: None): 12/13 (92%), 9/11 (82%), 11%, ns | tumour outcome (control, treated, inhibition, significance) (Carcinogen: 7,12-Dimethylbenz(a)anthracene (57-97-6), Dose [Inhibitor]: 2 mg administered daily for 28 days, Route [Inhibitor]: Subcutaneous, Species: Rat, Strain/Sex: Sprague-Dawley/Female, Target Tissue: Type of Lesion: Mammary gland: Adenocarcinoma and papillary carcinoma, Dose [Carcinogen]: 10 mg/kg once at 50 days of age, Promoter: None): 12/13 (92%), 11/12 (92%), 0%, ns | tumour outcome (control, treated, inhibition, significance) (Carcinogen: 7,12-Dimethylbenz(a)anthracene (57-97-6), Dose [Inhibitor]: 2 mg administered daily for 28 days, Route [Inhibitor]: Subcutaneous, Species: Rat, Strain/Sex: Sprague-Dawley/Female, Target Tissue: Type of Lesion: Mammary gland: Adenocarcinoma and papillary carcinoma, Dose [Carcinogen]: 10 mg/kg once at 50 days of age, Promoter: Progesterone (57-83-0)): 12/13 (92%), 10/11 (91%), 0%, ns | tumour outcome (control, treated, inhibition, significance) (Carcinogen: 7,12-Dimethylbenz(a)anthracene (57-97-6), Dose [Inhibitor]: 10 mg administered daily for 28 days, Route [Inhibitor]: Subcutaneous, Species: Rat, Strain/Sex: Sprague-Dawley/Female, Target Tissue: Type of Lesion: Mammary gland: Adenocarcinoma and papillary carcinoma, Dose [Carcinogen]: 10 mg/kg once at 50 days of age, Promoter: None): 12/13 (92%), 10/11 (91%), 0%, ns | tumour outcome (control, treated, inhibition, significance) (Carcinogen: 7,12-Dimethylbenz(a)anthracene (57-97-6), Dose [Inhibitor]: 10 mg administered daily for 28 days, Route [Inhibitor]: Subcutaneous, Species: Rat, Strain/Sex: Sprague-Dawley/Female, Target Tissue: Type of Lesion: Mammary gland: Adenocarcinoma and papillary carcinoma, Dose [Carcinogen]: 10 mg/kg once at 50 days of age, Promoter: Progesterone (57-83-0)): 12/13 (92%), 10/12 (83%), 10%, ns

CC(=O)OCC(=O)[C@@]1(O)CC[C@H]2[C@@H]3CCC4=CC(=O)CC[C@]4(C)[C@H]3C(=O)C[C@@]21C
tumour outcome (control, treated, inhibition, significance) (Carcinogen: 1,2-DIMETHYLHYDRAZINE DIHYDROCHLORIDE, 306-37-6, Dose [Inhibitor]: 0, 2.5 MG/KG IN PEANUT OIL ON DAYS 1 AND 3 OF STUDY THEN 1/WK FOR 30 WK (STUDY DURATION: 31 WK), Route [Inhibitor]: SUBCUTANEOUS, Species: RAT, Strain/Sex: SPRAGUE-DAWLEY/MALE, Target Tissue: Type of Lesion: COLON: ADENOCARCINOMA, Dose [Carcinogen]: 9 MG/KG 1/WK FOR 7 WK THEN 19.4 MG/KG 1/WK FOR 13 WK, Promoter: NONE USED): 14/14 (100%), 12/13 (92%), 8%, not significant | tumour outcome (control, treated, inhibition, significance) (Carcinogen: 1,2-DIMETHYLHYDRAZINE DIHYDROCHLORIDE, 306-37-6, Dose [Inhibitor]: 0, 2.5 MG/KG IN PEANUT OIL ON DAYS 1 AND 3 OF STUDY THEN 1/WK FOR 30 WK (STUDY DURATION: 31 WK), Route [Inhibitor]: SUBCUTANEOUS, Species: RAT, Strain/Sex: SPRAGUE-DAWLEY/MALE, Target Tissue: Type of Lesion: SMALL INTESTINE: ADENOCARCINOMA, Dose [Carcinogen]: 9 MG/KG 1/WK FOR 7 WK THEN 19.4 MG/KG 1/WK FOR 13 WK, Promoter: NONE USED): 13/14 (93%), 10/13 (77%), 17%, not significant

C/C(=C\c1ccc(C(=O)O)cc1)c1ccc2c(c1)C(C)(C)CCS2
tumour outcome (control, treated, inhibition, significance) (Carcinogen: 7,12-DIMETHYLBENZ[A]ANTHRACENE, 57-97-6, Dose [Inhibitor]: 1.7 NMOL IN 0.2 ML ACETONE 1 HR PRIOR TO EACH PROMOTER DOSE FOR 12 WK (STUDY DURATION: 14 WK), Route [Inhibitor]: DERMAL, Species: MOUSE, Strain/Sex: SENCAR/FEMALE, Target Tissue: Type of Lesion: SKIN: PAPILLOMA, Dose [Carcinogen]: 200 NMOL IN 0.2 ML ACETONE ONCE, Promoter: 12-O-TETRADECANOYLPHORBOL-13-ACETATE, 16561-29-8): 100%, 100%, 0%, not calculated | tumour outcome (control, treated, inhibition, significance) (Carcinogen: 7,12-DIMETHYLBENZ[A]ANTHRACENE, 57-97-6, Dose [Inhibitor]: 1.7 NMOL IN 0.2 ML ACETONE 1 HR PRIOR TO EACH PROMOTER DOSE FOR 20 WK (STUDY DURATION: 22 WK), Route [Inhibitor]: DERMAL, Species: MOUSE, Strain/Sex: CD-1/FEMALE, Target Tissue: Type of Lesion: SKIN: PAPILLOMA, Dose [Carcinogen]: 200 NMOL IN 0.2 ML ACETONE ONCE, Promoter: 12-O-TETRADECANOYLPHORBOL-13-ACETATE, 16561-29-8): 94%, 93%, 1%, not calculated | tumour outcome (control, treated, inhibition, significance) (Carcinogen: 7,12-DIMETHYLBENZ[A]ANTHRACENE, 57-97-6, Dose [Inhibitor]: 17 NMOL IN 0.2 ML ACETONE 1 HR PRIOR TO EACH PROMOTER DOSE FOR 12 WK (STUDY DURATION: 14 WK), Route [Inhibitor]: DERMAL, Species: MOUSE, Strain/Sex: SENCAR/FEMALE, Target Tissue: Type of Lesion: SKIN: PAPILLOMA, Dose [Carcinogen]: 200 NMOL IN 0.2 ML ACETONE ONCE, Promoter: 12-O-TETRADECANOYLPHORBOL-13-ACETATE, 16561-29-8): 100%, 90%, 10%, not calculated | tumour outcome (control, treated, inhibition, significance) (Carcinogen: 7,12-DIMETHYLBENZ[A]ANTHRACENE, 57-97-6, Dose [Inhibitor]: 17 NMOL IN 0.2 ML ACETONE 1 HR PRIOR TO EACH PROMOTER DOSE FOR 20 WK (STUDY DURATION: 22 WK), Route [Inhibitor]: DERMAL, Species: MOUSE, Strain/Sex: CD-1/FEMALE, Target Tissue: Type of Lesion: SKIN: PAPILLOMA, Dose [Carcinogen]: 200 NMOL IN 0.2 ML ACETONE ONCE, Promoter: 12-O-TETRADECANOYLPHORBOL-13-ACETATE, 16561-29-8): 94%, 38%, 60%, not calculated | tumour outcome (control, treated, inhibition, significance) (Carcinogen: 7,12-DIMETHYLBENZ[A]ANTHRACENE, 57-97-6, Dose [Inhibitor]: 170 NMOL IN 0.2 ML ACETONE 1 HR PRIOR TO EACH PROMOTER DOSE FOR 12 WK (STUDY DURATION: 14 WK), Route [Inhibitor]: DERMAL, Species: MOUSE, Strain/Sex: SENCAR/FEMALE, Target Tissue: Type of Lesion: SKIN: PAPILLOMA, Dose [Carcinogen]: 200 NMOL IN 0.2 ML ACETONE ONCE, Promoter: 12-O-TETRADECANOYLPHORBOL-13-ACETATE, 16561-29-8): 100%, 38%, 62%, not calculated | tumour outcome (control, treated, inhibition, significance) (Carcinogen: 7,12-DIMETHYLBENZ[A]ANTHRACENE, 57-97-6, Dose [Inhibitor]: 170 NMOL IN 0.2 ML ACETONE 1 HR PRIOR TO EACH PROMOTER DOSE FOR 20 WK (STUDY DURATION: 22 WK), Route [Inhibitor]: DERMAL, Species: MOUSE, Strain/Sex: CD-1/FEMALE, Target Tissue: Type of Lesion: SKIN: PAPILLOMA, Dose [Carcinogen]: 200 NMOL IN 0.2 ML ACETONE ONCE, Promoter: 12-O-TETRADECANOYLPHORBOL-13-ACETATE, 16561-29-8): 94%, 24%, 74%, not calculated
